The source of these data is ChEMBL document CHEMBL3039007, “Structure-based identification of OATP1B1/3 inhibitors” (Mol Pharmacol, 2013).

Data set [1] addresses T1, Solute carrier organic anion transporter family member 1B1 (Homo sapiens, UniProt Q9Y6L6).
T1 sequence (Q9Y6L6 whole entry): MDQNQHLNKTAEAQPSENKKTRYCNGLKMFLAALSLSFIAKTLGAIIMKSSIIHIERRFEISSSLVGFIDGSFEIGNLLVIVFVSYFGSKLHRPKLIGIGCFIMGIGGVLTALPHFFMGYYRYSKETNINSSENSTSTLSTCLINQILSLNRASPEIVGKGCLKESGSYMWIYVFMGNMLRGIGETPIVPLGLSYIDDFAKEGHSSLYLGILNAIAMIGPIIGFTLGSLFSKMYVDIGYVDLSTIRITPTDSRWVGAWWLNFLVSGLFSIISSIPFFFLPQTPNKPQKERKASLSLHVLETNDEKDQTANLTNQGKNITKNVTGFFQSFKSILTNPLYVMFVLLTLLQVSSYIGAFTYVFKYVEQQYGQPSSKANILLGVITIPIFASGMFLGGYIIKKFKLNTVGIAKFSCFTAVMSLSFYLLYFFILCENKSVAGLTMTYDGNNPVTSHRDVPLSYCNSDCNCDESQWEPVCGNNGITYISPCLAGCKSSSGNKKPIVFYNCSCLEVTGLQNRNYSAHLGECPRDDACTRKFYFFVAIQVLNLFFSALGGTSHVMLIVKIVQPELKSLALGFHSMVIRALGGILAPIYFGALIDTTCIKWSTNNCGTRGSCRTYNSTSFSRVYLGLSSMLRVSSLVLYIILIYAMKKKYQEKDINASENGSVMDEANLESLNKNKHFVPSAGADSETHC
As to conditions: chinese hamster, cho, 10 µM.

Data set [2] concerns the target T2, Solute carrier organic anion transporter family member 1B3 (Homo sapiens, UniProt Q9NPD5).
T2 sequence (Q9NPD5 whole entry): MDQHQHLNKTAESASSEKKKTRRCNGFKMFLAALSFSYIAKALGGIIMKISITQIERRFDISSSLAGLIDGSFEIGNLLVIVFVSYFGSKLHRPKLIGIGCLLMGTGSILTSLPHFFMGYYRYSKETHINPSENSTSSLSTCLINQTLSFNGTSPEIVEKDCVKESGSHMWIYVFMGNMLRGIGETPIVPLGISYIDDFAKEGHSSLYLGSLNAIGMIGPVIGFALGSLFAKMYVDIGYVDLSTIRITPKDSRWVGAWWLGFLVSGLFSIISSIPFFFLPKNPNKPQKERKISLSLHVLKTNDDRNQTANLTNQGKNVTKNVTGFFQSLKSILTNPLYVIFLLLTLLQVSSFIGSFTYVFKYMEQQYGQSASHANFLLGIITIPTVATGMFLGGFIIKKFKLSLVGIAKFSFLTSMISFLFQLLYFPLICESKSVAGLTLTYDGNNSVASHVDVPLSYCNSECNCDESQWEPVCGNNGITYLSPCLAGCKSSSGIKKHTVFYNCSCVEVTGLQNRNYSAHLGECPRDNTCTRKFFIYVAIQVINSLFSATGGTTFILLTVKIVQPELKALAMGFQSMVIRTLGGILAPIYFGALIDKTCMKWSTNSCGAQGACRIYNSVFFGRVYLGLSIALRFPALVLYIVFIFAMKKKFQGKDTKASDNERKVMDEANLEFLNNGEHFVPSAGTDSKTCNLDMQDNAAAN
As to conditions: chinese hamster, cho, 10 µM.

Take `OCC(O)CN1CCN(c2ccccc2)CC1` (stereo not drawn) [DROPROPIZINE]: the residual activity in data set [1] was determined as 71.05%; in data set [2] it was 96.03%.
Taken in the same sequence, the figures for `COc1ccc([C@H]2COc3c(ccc(O)c3OC)C2)c(OC)c1O` [DUARTIN (-)] were 88.51% and 86.99%.
For `COc1ccc2c(c1OC)OC[C@@H](c1ccc(OC)c(OC)c1OC)C2` [DUARTIN, DIMETHYL ETHER], the residual activity in data set [1] is 113.2%; in data set [2] it was 110.8%.
Taken in the same sequence, the figures for `CCCCOc1ccc(C(=O)CCN2CCCCC2)cc1.Cl` [DYCLONINE HYDROCHLORIDE] were 170.9% and 83.62%.
The like results for `Cn1c(=O)c2c(ncn2CC(O)CO)n(C)c1=O` (stereo not drawn) [DYPHYLLINE] were, in that order, 92.75% and 94.34%.
For the compound `CCOc1ccc2c(c1)C(C)=CC(C)(C)N2` [E324], the residual activity is listed as 108.3% in data set [1] and 119.7% in data set [2].
The like results for `CC1(C)CC[C@]2(C(=O)O)[C@H](O)C[C@]3(C)C(=CC[C@@H]4[C@@]5(C)CC[C@H](O)C(C)(C)[C@@H]5CC[C@]43C)[C@@H]2C1` [ECHINOCYSTIC ACID] were, in that order, 69.3% and 30.48%.
Taken in the same sequence, the figures for `Clc1ccc(COC(Cn2ccnc2)c2ccc(Cl)cc2Cl)cc1.O=[N+]([O-])O` (stereo not drawn) [ECONAZOLE NITRATE] were 146.5% and 127.4%.
The like results for `O=C(O)CN(CCN(CC(=O)O)CC(=O)O)CC(=O)O` [EDETIC ACID] were, in that order, 81.77% and 82.24%.
As to `CCc1cn([C@H]2C[C@H](O)[C@@H](CO)O2)c(=O)[nH]c1=O` [EDOXUDINE], the results for the residual activity in data set [1] and in data set [2] were 92.48% and 109.7%, respectively.
The like results for `CC[N+](C)(C)c1cccc(O)c1.[Cl-]` [EDROPHONIUM CHLORIDE] were, in that order, 79.44% and 93.08%.
The like results for `CCC1(C2=NCCN2)Cc2ccccc2O1.Cl` (stereo not drawn) [EFAROXAN HYDROCHLORIDE] were, in that order, 80.2% and 83.03%.
For `CCCCCCCC/C=C/CCCCCCCCOP(=O)([O-])OCC[N+](C)(C)C` [ELAIDYLPHOSPHOCHOLINE], the residual activity was 66.64% in data set [1] and 84.98% in data set [2].
Take `O=c1oc2c(O)c(O)cc3c(=O)oc4c(O)c(O)cc1c4c23` [ELLAGIC ACID]: the residual activity in data set [1] was determined as 75.25%; in data set [2], 65.47%.
In the case of `CCCCCCCCCCCC1=C(O)C(=O)C=C(O)C1=O` [EMBELIN], the residual activity is 98.02% in data set [1] and 94.22% in data set [2].
The like results for `O=C(O)c1cc(O)c2c(c1)C(=O)c1cc(O)cc(O)c1C2=O` [EMODIC ACID] were, in that order, 150% and 72.9%.
The like results for `Cc1cc(O)c2c(c1)C(=O)c1cc(O)cc(O)c1C2=O` [EMODIN] were, in that order, 135% and 119.5%.
Taken in the same sequence, the figures for `CCOC(=O)[C@H](CCc1ccccc1)N[C@@H](C)C(=O)N1CCC[C@H]1C(=O)O.O=C(O)/C=C\C(=O)O` [ENALAPRIL MALEATE] were 190.1% and 110.9%.
As for `O=C(CC[N+](=O)[O-])OC[C@H]1O[C@@H](O)[C@H](OC(=O)CC[N+](=O)[O-])[C@@H](OC(=O)CC[N+](=O)[O-])[C@@H]1OC(=O)CC[N+](=O)[O-]` [ENDECAPHYLLIN X], the residual activity worked out at 80.29% in data set [1] and 82.04% in data set [2].
On to `O=S1OCC2C(CO1)C1(Cl)C(Cl)=C(Cl)C2(Cl)C1(Cl)Cl` (stereo not drawn) [ENDOSULFAN], for which the residual activity worked out at 111.6% in data set [1] and 117.8% in data set [2].
As to `ClC1=C(Cl)C2(Cl)C3C4CC(C5OC45)C3C1(Cl)C2(Cl)Cl` (stereo not drawn) [ENDRIN], the residual activity in data set [1] was 107.3%; in data set [2], 121%.
Taken in the same sequence, the figures for `CC(C)C[C@H](NC(=O)[C@H](Cc1ccccc1)NC(=O)CNC(=O)CNC(=O)[C@@H](N)Cc1ccc(O)cc1)C(=O)O` [ENKEPHALIN] were 84.58% and 87.68%.
Taken in the same sequence, the figures for `CCn1cc(C(=O)O)c(=O)c2cc(F)c(N3CCNCC3)nc21` [ENOXACIN] were 111.1% and 89.58%.
Taken in the same sequence, the figures for `C=C[C@@](C)(O)CCC1C(=C)CCC2[C@@](C)(CO)CCC[C@]12C` (stereo partly drawn) [EPI(13)TORULOSOL] were 109% and 115.1%.
`Oc1ccc([C@H]2Oc3cc(O)cc(O)c3C[C@H]2O)cc1` [EPIAFZELECHIN (2R,3R)(-)]: the values for the residual activity in data set [1] and in data set [2] were 48.25% and 26.68%, respectively.
Consider `COc1ccc([C@H]2Oc3cc(OC)cc(OC)c3C[C@H]2O)cc1` [EPIAFZELECHIN TRIMETHYL ETHER], for which the residual activity in data set [1] was determined as 79.64%; in data set [2], 113.6%.
Taken in the same sequence, the figures for `C[C@]12CC[C@H](O)C[C@@H]1CC[C@@H]1[C@@H]2CC[C@]2(C)C(=O)CC[C@@H]12` [EPIANDROSTERONE] were 55.38% and 91.34%.
Taken in the same sequence, the figures for `CC(=O)Oc1cc(OC(C)=O)c2c(c1)O[C@H](c1ccc(OC(C)=O)c(OC(C)=O)c1)[C@H](OC(C)=O)C2` [EPICATECHIN PENTAACETATE] were 74.79% and 76.08%.
The like results for `CC(C)CCC[C@@H](C)[C@H]1CC[C@H]2[C@@H]3CC[C@@H]4C[C@H](O)CC[C@]4(C)[C@H]3CC[C@]12C` [EPICOPROSTEROL] were, in that order, 90.49% and 97.38%.
In the case of `O=C(Oc1cc(O)cc2c1C[C@@H](OC(=O)c1cc(O)c(O)c(O)c1)[C@@H](c1cc(O)c(O)c(O)c1)O2)c1cc(O)c(O)c(O)c1` [EPIGALLOCATECHIN 3,5-DIGALLATE], the residual activity in data set [1] is recorded as 55.31%; in data set [2] it was 82.14%.
The like results for `Oc1cc(O)c2c(c1)O[C@H](c1cc(O)c(O)c(O)c1)[C@H](O)C2` [EPIGALLOCATECHIN] were, in that order, 101.7% and 96.72%.
Taken in the same sequence, the figures for `O=C(O[C@@H]1Cc2c(O)cc(O)cc2O[C@@H]1c1cc(O)c(O)c(O)c1)c1cc(O)c(O)c(O)c1` [EPIGALOCATECHIN GALLATE] were 49.04% and 45.88%.
In the case of `C[C@@H]1C(=O)O[C@H]2[C@H]1CC[C@@]1(C)C=CC(=O)[C@@]3(C)O[C@@]213` [EPOXY (4,5alpha)-4,5-DIHYDROSANTONIN], the results for the residual activity in data set [1] and in data set [2] were 91.53% and 88.69%, respectively.
The like results for `C[C@]12CC[C@H]3C(=CCc4cc(O)ccc43)[C@@H]1CCC2=O` [EQUILIN] were, in that order, 88.55% and 96.05%.
Taken in the same sequence, the figures for `C[C@@H](CO)NC(=O)[C@@H]1C=C2c3cccc4[nH]cc(c34)C[C@H]2N(C)C1.O=C(O)/C=C\C(=O)O` [ERGONOVINE MALEATE] were 69.31% and 84.31%.
Taken in the same sequence, the figures for `CC(C)[C@@H](C)/C=C/[C@@H](C)[C@H]1CC[C@H]2C3=CCC4CC(=O)CC[C@]4(C)[C@H]3CC[C@]12C` (stereo partly drawn) [ERGOSTA-7,22-DIEN-3-ONE] were 71.12% and 94.39%.
For the compound `CC(C)[C@@H](C)/C=C/[C@@H](C)[C@H]1CC[C@H]2C3=CC=C4C[C@@H](O)CC[C@]4(C)[C@H]3CC[C@]12C` [ERGOSTEROL], the residual activity in data set [1] is 31.68%; in data set [2], 52.34%.
Taken in the same sequence, the figures for `CS(=O)(=O)CCCCN=C=S` [ERYSOLIN] were 108.6% and 72.62%.
The like results for `CN(C)CCC[C@@]1(c2ccc(F)cc2)OCc2cc(C#N)ccc21.O=C(O)C(=O)O` [ESCITALOPRAM OXALATE] were, in that order, 102.3% and 117.8%.
